Test results published in US11203591B2, “Substituted 6-azabenzimidazole compounds” (Gilead Sciences, Inc., priority 2018, dated 2021).

Molecular target: human HPK1 (MAP4K1) (Homo sapiens (Human), UniProt Q92918)
Assay: HPK1 IC50 Assay (TR-FRET peptide phosphorylation)
Format: biochemical
Description: The enzymatic activity of human HPK1 (MAP4K1) was monitored in a biochemical assay in the presence or absence of compounds and using a synthetic peptide substrate. An increase in phosphorylation of the peptide by HPK1 was indicative of its kinase activity.
Recombinant HPK1 kinase domain produced via baculovirus infection of insect cells was obtained from Proteros (Proteros Biostructures #PR-0322) and was pre-activated in the presence of 2 mM ATP (Sigma-Aldrich, cat #GE27-2056-01) and 2 mM magnesium chloride for 16 hours at 4° C. The protein reaction mixture was then loaded to a desalting column (Thermo Fisher Scientific, Cat #89889) to remove excess ATP. HPK1 was eluted with buffer containing 20 mM Tris (2-Amino-2-(hydroxymethyl)propane-1,3-diol) pH 8.0, 150 mM NaCl, 2 mM dithiothreitol and 5% glycerol, and was frozen at −80° C. for later use. HPK1 dual phosphorylation was confirmed by mass spectrometry.
Ten nanoliters of test compounds dissolved in DMSO at various concentrations were dispensed into a 384-well ProxiPlate (PerkinElmer #6008289). Five microliters of a solution of recombinant HPK1 diluted in HPK1 kinase assay buffer (50 mM BES [N,N-Bis(2-hydroxyethyl)-2-aminoethanesulfonic acid], pH 7.0; 10 mM magnesium chloride; 0.01% Triton X-100; 1 mM dithiothreitol; 0.01% bovine serum albumin; 0.1 mM sodium orthovanadate) was added to the compound-containing plate and was incubated for 15 minutes at 25° C. Five microliters of a mixture of ATP (Sigma-Aldrich #A6559) and peptide substrate STK S1 (Cisbio #61ST1BLC) diluted in HPK1 kinase assay buffer was then added to start the reaction. Final concentrations were 0.15 nM for HPK1, 10 μM for ATP, and 1 μM for the STK S1 peptide substrate. The reaction mixture was incubated at 25° C. for 3 hours and was stopped with the addition of 10 μl of an EDTA (Ethylenediaminetetraacetic acid)-containing detection buffer (Cisbio #62SDBRDF) supplemented with Europium cryptate-labeled anti-phospho-serine/threonine antibodies (Cisbio #62ST1PEJ) and XL665-labeled streptavidin (Cisbio #610SAXLG). The mixture was incubated for 16 hours at room temperature and peptide phosphorylation was measured by time-resolved fluorescence energy transfer (665 nm/620 nm) on an Envision plate reader (PerkinElmer).
Data in Table 1 were normalized based on positive (staurosporine) and negative (DMSO) controls. Least squares curve fittings were performed using a four-parameter variable slope nonlinear regression model. IC50 is defined as the concentration of compound required to inhibit 50% of maximum phosphorylation. IC50 values from multiple experiments were averaged by geometric mean and the standard deviation was calculated.

[1] = recombinant HPK1 kinase domain 0.15 nM, 10 μM ATP, 1 μM STK S1 peptide, geometric mean of multiple experiments
[2] = 0.15 nM HPK1, 10 μM ATP, 1 μM STK S1 peptide substrate, geometric mean

Sequence of human HPK1 (MAP4K1) (Q92918 17-274): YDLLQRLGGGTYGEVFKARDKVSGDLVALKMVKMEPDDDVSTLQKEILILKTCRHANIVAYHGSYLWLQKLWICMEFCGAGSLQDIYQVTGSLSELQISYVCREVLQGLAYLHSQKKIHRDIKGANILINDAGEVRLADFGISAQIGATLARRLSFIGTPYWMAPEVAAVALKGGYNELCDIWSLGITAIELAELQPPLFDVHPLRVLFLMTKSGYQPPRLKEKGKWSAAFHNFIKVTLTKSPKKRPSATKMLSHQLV

| Compound | IC50 [1] [pM] | IC50 [2] [pM] |
| --- | --- | --- |
| CC(=O)N1CCC2(CC1)C(=O)N([C@H]1C[C@@H](N3CCCCC3)C1)c1cc(-c3cc4ncn(C(C)C)c4c(Nc4cc(C(=O)NCC(C)C)c(C)cc4F)n3)ccc12 [Example 75] | 200 | – |
| CNC(=O)c1cc(Nc2nc(-c3ccc4c(c3)N([C@H]3C[C@@H](N5CCCCC5)C3)C(=O)C43CCN(C(=O)C45CC(F)(C4)C5)CC3)cc3ncn(C4CC4)c23)ccc1C [Example 154] | 60 | – |
| CC(C)n1cnc2cc(-c3ccc4c(c3)N([C@H]3C[C@@](C)(N5CCCCC5)C3)C(=O)C4(C)C)nc(Nc3cc(C(=O)NCC(F)F)c(Cl)cc3F)c21 [Example 289, 2-chloro-N-(2,2-difluoroethyl)-5-((6-(3,3-dimethyl-1-((1s,3s)-3-methyl-3-(piperidin-1-yl)cyclobutyl)-2-oxoindolin-6-yl)-3-isopropyl-3H-imidazo[4,5-c]pyridin-4-yl)amino)-4-fluorobenzamide] | – | 70 |
| CNC(=O)c1cc(Nc2nc(-c3ccc4c(c3)N([C@H]3C[C@@H](N5CCCCC5)C3)C(=O)C43CCN(C(=O)C4COC4)CC3)cc3ncn(C4CC4)c23)ccc1C [Example 153] | 100 | – |
| Cc1cc(F)c(Nc2nc(-c3ccc4c(c3)N([C@H]3C[C@@H](N5CCCCC5)C3)C(=O)C43CCOCC3)cc3ncn(C(C)C)c23)cc1C(=O)NC(C)C [Example 125] | 200 | – |
| Cc1c(C(=O)NC2(C(F)F)CC2)cc(Nc2nc(-c3cnc4c(c3)N([C@H]3C[C@@](C)(N5CCCCC5)C3)CC4(C)C)cc3ncn(C(C)C)c23)c(F)c1F [Example 214, N-(1-(Difluoromethyl)cyclopropyl)-5-((6-(3,3-dimethyl-1-((1s,3s)-3-methyl-3-(piperidin-1-yl)cyclobutyl)-2,3-dihydro-1H-pyrrolo[3,2-b]pyridin-6-yl)-3-isopropyl-3H-imidazo[4,5-c]pyridin-4-yl)amino)-3,4-difluoro-2-methylbenzamide] | 100 | – |
| CNC(=O)c1cc(Nc2nc(-c3ccc4c(c3)N([C@H]3C[C@@H](N5CC[C@@H](F)C5)C3)C(=O)C4(C)C)cc3ncn(C(C)C)c23)ccc1C [Example 4] | 100 | – |
| CNC(=O)c1cc(Nc2nc(-c3ccc4c(c3)N([C@H]3C[C@@H](N5CCCCC5)C3)C(=O)C43CCN(C(=O)C4CC4)CC3)cc3ncn(C4CC4)c23)ccc1C [Example 51] | 100 | – |
| Cc1c(C(=O)NC2(C(F)F)CC2)cc(Nc2nc(-c3cnc4c(c3)N([C@H]3C[C@@H](N5CCCCC5)C3)C(=O)C4(C)C)cc3ncn(C(C)C)c23)c(F)c1F [Example 246, N-(1-(difluoromethyl)cyclopropyl)-5-((6-(3,3-dimethyl-2-oxo-1-((1s,3s)-3-(piperidin-1-yl)cyclobutyl)-2,3-dihydro-1H-pyrrolo[3,2-b]pyridin-6-yl)-3-isopropyl-3H-imidazo[4,5-c]pyridin-4-yl)amino)-3,4-difluoro-2-methylbenzamide] | 40 | – |
| CC(=O)N1CCC2(CC1)C(=O)N([C@H]1C[C@@H](N3CC4CCC(C3)O4)C1)c1cc(-c3cc4ncn(C(C)C)c4c(Nc4cc(C(=O)NC(C)C)c(C)cc4F)n3)ccc12 [Example 78] | 200 | – |
| Cc1ccc(Nc2nc(-c3ccc4c(c3)N([C@H]3C[C@@H](N5CCCCC5)C3)C(=O)C4(C)C)cc3ncn(C(C)C)c23)cc1C(=O)NC1CC1 [Example 26] | 100 | – |
| CNC(=O)c1cc(Nc2nc(-c3ccc4c(c3)N([C@H]3C[C@@H](N5CCCCC5)C3)C(=O)C43CCN(C(=O)C(C)C)CC3)cc3ncn(C4CC4)c23)ccc1C [Example 52] | 90 | – |
| Cc1c(C(=O)NC2(CF)CC2)cc(Nc2nc(-c3cnc4c(c3)N([C@H]3C[C@@](C)(N5CCCCC5)C3)C(=O)C4(C)C)cc3ncn(C(C)C)c23)c(F)c1F [Example 186, 5-((6-(3,3-Dimethyl-1-((1s,3s)-3-methyl-3-(piperidin-1-yl)cyclobutyl)-2-oxo-2,3-dihydro-1H-pyrrolo[3,2-b]pyridin-6-yl)-3-isopropyl-3H-imidazo[4,5-c]pyridin-4-yl)amino)-3,4-difluoro-N-(1-(fluoromethyl)cyclopropyl)-2-methylbenzamide] | 70 | – |
| CCNC(=O)c1cc(Nc2nc(-c3cnc4c(c3)N([C@H]3C[C@@](C)(N5CCCC6(CC6)C5)C3)C(=O)C4(C)C)cc3ncn(C(C)C)c23)c(F)c(F)c1Cl [Example 283, 2-chloro-5-((6-(3,3-dimethyl-1-((1s,3s)-3-methyl-3-(5-azaspiro[2.5]octan-5-yl)cyclobutyl)-2-oxo-2,3-dihydro-1H-pyrrolo[3,2-b]pyridin-6-yl)-3-isopropyl-3H-imidazo[4,5-c]pyridin-4-yl)amino)-N-ethyl-3,4-difluorobenzamide] | – | 90 |
| CCNC(=O)c1cc(Nc2nc(-c3cnc4c(c3)N([C@H]3C[C@@](C)(N5CCCCC5)C3)C(=O)C4(C)C)cc3ncn(C(C)C)c23)c(F)c(F)c1Cl [Example 286, 2-chloro-5-((6-(3,3-dimethyl-1-((1s,3s)-3-methyl-3-(piperidin-1-yl)cyclobutyl)-2-oxo-2,3-dihydro-1H-pyrrolo[3,2-b]pyridin-6-yl)-3-isopropyl-3H-imidazo[4,5-c]pyridin-4-yl)amino)-N-ethyl-3,4-difluorobenzamide] | – | 100 |
| CC(C)n1cnc2cc(-c3cnc4c(c3)N([C@H]3C[C@@](C)(N5CCCOCC5)C3)C(=O)C4(C)C)nc(Nc3cc(C(=O)NC4(C(F)F)CC4)c(Cl)c(F)c3F)c21 [Example 198, 2-Chloro-N-(1-(difluoromethyl)cyclopropyl)-5-((6-(3,3-dimethyl-1-((1s,3s)-3-methyl-3-(1,4-oxazepan-4-yl)cyclobutyl)-2-oxo-2,3-dihydro-1H-pyrrolo[3,2-b]pyridin-6-yl)-3-isopropyl-3H-imidazo[4,5-c]pyridin-4-yl)amino)-3,4-difluorobenzamide] | 10 | – |
| CC(C)n1cnc2cc(-c3ccc4c(c3)N([C@H]3C[C@@H](N5CCCCC5)C3)C(=O)C4(C)C)nc(Nc3cc(C(=O)NC4(C(F)F)CC4)c(Cl)c(F)c3F)c21 [Example 244, 2-chloro-N-(1-(difluoromethyl)cyclopropyl)-5-((6-(3,3-dimethyl-2-oxo-1-((1s,3s)-3-(piperidin-1-yl)cyclobutyl)indolin-6-yl)-3-isopropyl-3H-imidazo[4,5-c]pyridin-4-yl)amino)-3,4-difluorobenzamide] | 50 | – |
| CC(C)n1cnc2cc(-c3cnc4c(c3)N([C@H]3C[C@@H](N5CCCCC5)C3)C(=O)C4(C)C)nc(Nc3cc(C(=O)NC4(C(F)F)CC4)c(Cl)c(F)c3F)c21 [Example 245, 2-chloro-N-(1-(difluoromethyl)cyclopropyl)-5-((6-(3,3-dimethyl-2-oxo-1-((1s,3s)-3-(piperidin-1-yl)cyclobutyl)-2,3-dihydro-1H-pyrrolo[3,2-b]pyridin-6-yl)-3-isopropyl-3H-imidazo[4,5-c]pyridin-4-yl)amino)-3,4-difluorobenzamide] | 100 | – |
| CNC(=O)c1cc(Nc2nc(-c3ccc4c(c3)N([C@H]3C[C@@H](N5CCCCC5)C3)C(=O)C4(C)C)cc3ncn(C(C)C)c23)ccc1C [Example 1, 5-((6-(3,3-dimethyl-2-oxo-1-((1s,3s)-3-(piperidin-1-yl)cyclobutyl)indolin-6-yl)-3-isopropyl-3H-imidazo[4,5-c]pyridin-4-yl)amino)-N,2-dimethylbenzamide] | 80 | – |
| CNC(=O)c1cc(Nc2nc(-c3ccc4c(c3)N([C@H]3C[C@@H](N5CCCCC5)C3)CC4(C)C)cc3ncn(C4CC4)c23)ccc1C [Example 58] | 600 | – |
